Measured values reported in ChEMBL document CHEMBL4406902, “Structure-based analysis and biological characterization of imatinib derivatives reveal insights towards the inhibition of wild-type BCR-ABL and its mutants” (Bioorg Med Chem Lett, 2019).

Columns and labels:
[1] = Inhibition of BCR/Abl P190 mutant (unknown origin) transfected in mouse Ba/F3 cells assessed as inhibition of cell proliferation measured after 72 hrs by CellTiter-Glo luminescent cell viability assay; type: cell-based; details: BaF3, 72 h
[2] = Inhibition of BCR/Abl P230 mutant (unknown origin) transfected in mouse Ba/F3 cells assessed as inhibition of cell proliferation measured after 72 hrs by CellTiter-Glo luminescent cell viability assay; type: cell-based; details: BaF3, 72 h

SMILES	IC50 [1] [nM]	IC50 [2] [nM]
Cc1cn(-c2cc(NC(=O)c3ccc(C)c(Nc4nccc(-c5cccnc5)n4)c3)cc(C(F)(F)F)c2)cn1 [NILOTINIB]	23.2	19
Cc1ncc(NC(=O)c2ccc(CN3CCN(C)CC3)c(C(F)(F)F)c2)cc1Nc1nccc(-c2cccnc2)n1 [FLUMATINIB]	13.3	10.3
Cc1ccc(NC(=O)c2ccc(CN3CCN(C)CC3)cc2)cc1Nc1nccc(-c2cccnc2)n1 [IMATINIB]	346	222
